{
  "source": "ChEMBL document CHEMBL1671858",
  "about": "“Coprevalence of plasmid-mediated quinolone resistance determinants QepA, Qnr, and AAC(6')-Ib-cr among 16S rRNA methylase RmtB-producing Escherichia coli isolates from pigs” (2008)",
  "format_in_all_cases": "functional",
  "key": {"Escherichia coli [1]": {"tested_on": "Escherichia coli", "test": "Antimicrobial activity against Escherichia coli isolate GZ3 PFGE type A1 harboring qepA gene by agar dilution method"}, "Escherichia coli [2]": {"tested_on": "Escherichia coli", "test": "Antimicrobial activity against Escherichia coli isolate GZ5 PFGE type B harboring qepA gene by agar dilution method"}, "Escherichia coli [3]": {"tested_on": "Escherichia coli", "test": "Antimicrobial activity against Escherichia coli isolate GZ8 PFGE type C harboring qepA gene by agar dilution method"}, "Escherichia coli [4]": {"tested_on": "Escherichia coli", "test": "Antimicrobial activity against Escherichia coli isolate GZ16 PFGE type H harboring qepA gene by agar dilution method"}, "Escherichia coli [5]": {"tested_on": "Escherichia coli", "test": "Antimicrobial activity against Escherichia coli isolate CQ20 PFGE type J1 harboring qepA gene by agar dilution method"}, "Escherichia coli [6]": {"tested_on": "Escherichia coli", "test": "Antimicrobial activity against Escherichia coli isolate CQ14 PFGE type M harboring qepA gene by agar dilution method"}, "Escherichia coli [7]": {"tested_on": "Escherichia coli", "test": "Antimicrobial activity against Escherichia coli isolate GZ2 PFGE type O harboring qepA gene by agar dilution method"}, "Escherichia coli [8]": {"tested_on": "Escherichia coli", "test": "Antimicrobial activity against Escherichia coli isolate CQ13 PFGE type K harboring qepA gene by agar dilution method"}, "Escherichia coli [9]": {"tested_on": "Escherichia coli", "test": "Antimicrobial activity against Escherichia coli isolate GZ3 transconjugant harboring 16S rRNA methylase RmtB and qepA by agar dilution method relative to recipient strain"}, "Escherichia coli [10]": {"tested_on": "Escherichia coli", "test": "Antimicrobial activity against Escherichia coli isolate GZ5 transconjugant harboring 16S rRNA methylase RmtB and qepA by agar dilution method relative to recipient strain"}, "Escherichia coli [11]": {"tested_on": "Escherichia coli", "test": "Antimicrobial activity against Escherichia coli isolate GZ12 transconjugant harboring 16S rRNA methylase RmtB and qepA by agar dilution method relative to recipient strain"}, "Escherichia coli [12]": {"tested_on": "Escherichia coli", "test": "Antimicrobial activity against Escherichia coli isolate GZ14 transconjugant harboring 16S rRNA methylase RmtB and qepA by agar dilution method relative to recipient strain"}, "Escherichia coli [13]": {"tested_on": "Escherichia coli", "test": "Antimicrobial activity against Escherichia coli isolate GZ15 transconjugant harboring 16S rRNA methylase RmtB and qepA by agar dilution method relative to recipient strain"}, "Escherichia coli [14]": {"tested_on": "Escherichia coli", "test": "Antimicrobial activity against Escherichia coli isolate GZ16 transconjugant harboring 16S rRNA methylase RmtB and qepA by agar dilution method relative to recipient strain"}, "Escherichia coli [15]": {"tested_on": "Escherichia coli", "test": "Antimicrobial activity against Escherichia coli isolate CQ2 transconjugant harboring 16S rRNA methylase RmtB and qepA by agar dilution method relative to recipient strain"}, "Escherichia coli [16]": {"tested_on": "Escherichia coli", "test": "Antimicrobial activity against Escherichia coli isolate CQ5 transconjugant harboring 16S rRNA methylase RmtB and qepA by agar dilution method relative to recipient strain"}, "Escherichia coli [17]": {"tested_on": "Escherichia coli", "test": "Antimicrobial activity against Escherichia coli isolate CQ20 transconjugant harboring 16S rRNA methylase RmtB and qepA by agar dilution method relative to recipient strain"}, "Escherichia coli [18]": {"tested_on": "Escherichia coli", "test": "Antimicrobial activity against Escherichia coli isolate CQ13 transconjugant harboring 16S rRNA methylase RmtB and qnrS1 by agar dilution method relative to recipient strain"}, "Escherichia coli [19]": {"tested_on": "Escherichia coli", "test": "Antimicrobial activity against Escherichia coli isolate CQ16 transconjugant harboring 16S rRNA methylase RmtB and qepA, qnrS2, aac(6')-Ib-cr gene by agar dilution method relative to recipient strain"}},
  "data": [
    {"compound": "CCN1CCN(c2cc3c(cc2F)c(=O)c(C(=O)O)cn3C2CC2)CC1", "note": "[ENROFLOXACIN]", "values": [
      {"measurement": "MIC", "setting": "Escherichia coli [1]", "value": 64, "unit": "µg/mL"},
      {"measurement": "MIC", "setting": "Escherichia coli [2]", "value": 16, "unit": "µg/mL"},
      {"measurement": "MIC", "setting": "Escherichia coli [3]", "value": 64, "unit": "µg/mL"},
      {"measurement": "MIC", "setting": "Escherichia coli [4]", "value": "> 128", "unit": "µg/mL"},
      {"measurement": "MIC", "setting": "Escherichia coli [5]", "value": 0.03, "unit": "µg/mL"},
      {"measurement": "MIC", "setting": "Escherichia coli [6]", "value": 16, "unit": "µg/mL"},
      {"measurement": "MIC", "setting": "Escherichia coli [7]", "value": 2, "unit": "µg/mL"},
      {"measurement": "MIC", "setting": "Escherichia coli [8]", "value": 0.5, "unit": "µg/mL"},
      {"measurement": "fold change (FC)", "setting": "Escherichia coli [9]", "value": 4},
      {"measurement": "fold change (FC)", "setting": "Escherichia coli [10]", "value": 8},
      {"measurement": "fold change (FC)", "setting": "Escherichia coli [11]", "value": 4},
      {"measurement": "fold change (FC)", "setting": "Escherichia coli [12]", "value": 8},
      {"measurement": "fold change (FC)", "setting": "Escherichia coli [13]", "value": 8},
      {"measurement": "fold change (FC)", "setting": "Escherichia coli [14]", "value": 2},
      {"measurement": "fold change (FC)", "setting": "Escherichia coli [15]", "value": 16},
      {"measurement": "fold change (FC)", "setting": "Escherichia coli [16]", "value": 2},
      {"measurement": "fold change (FC)", "setting": "Escherichia coli [17]", "value": 4},
      {"measurement": "fold change (FC)", "setting": "Escherichia coli [18]", "value": 8},
      {"measurement": "fold change (FC)", "setting": "Escherichia coli [19]", "value": 2}
    ]}
  ]
}
